The source of these data is US8410310B2, “Trypsin-like serine protease inhibitors, and their preparation and use” (The Medicines Company (Leipzig) GmbH, priority 2006, dated 2013).

In one experiment the target is Xa (Homo sapiens, UniProt P00742). Nature of the experiment: Determination of inhibition constants for Xa. It counts as biochemical. In short, it runs like this: (§1)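 Chromogenic assays measured absorbance at 405 nm: zero-order reactions were stopped with acetic acid after 20 min, and pseudo-first-order rates were recorded kinetically at equilibrium. Ki was obtained by Dixon linear regression or by fitting to the competitive-inhibition rate equation, averaging at least two determinations.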
Chain of Xa (P00742 235-488 limits assumed): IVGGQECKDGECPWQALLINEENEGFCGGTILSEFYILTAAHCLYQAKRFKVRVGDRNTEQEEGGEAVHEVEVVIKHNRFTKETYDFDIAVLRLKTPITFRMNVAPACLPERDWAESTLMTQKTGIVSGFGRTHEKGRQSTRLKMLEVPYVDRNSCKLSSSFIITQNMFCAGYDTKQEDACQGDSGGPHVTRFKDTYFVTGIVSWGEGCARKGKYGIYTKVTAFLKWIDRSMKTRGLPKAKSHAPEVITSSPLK
Chain of Xa (P00742 41-179 limits assumed): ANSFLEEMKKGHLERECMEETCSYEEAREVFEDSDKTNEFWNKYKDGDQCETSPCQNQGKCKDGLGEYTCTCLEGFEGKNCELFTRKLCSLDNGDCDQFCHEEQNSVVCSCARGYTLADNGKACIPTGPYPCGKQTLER

For another experiment, the target named is Thrombin (Homo sapiens, UniProt P00734). Nature of the experiment: Determination of inhibition constants for thrombin. The class given is biochemical. In short, it runs like this: as §1
A further experiment deals with plasmin (Homo sapiens, UniProt P00747). Nature of the experiment: Determination of inhibition constants for plasmin. It counts as biochemical. More on the design: purchased Calbiochem. The following applies: 25° C., substrate Chromozym PL, pH 8.0; read-out: Plasmin [Ki]. In short, it runs like this:
as §1

The target in a further experiment is plasma kallikrein (Homo sapiens, UniProt P03952). Nature of the experiment: Determination of inhibition constants for PK. More on the design: purchased Enzyme Research Lab. / Enzyme Research Laboratories. The following applies: 25° C., substrate S2302, pH 8.0; read-out: PK [Ki]. It counts as biochemical. In short, it runs like this: as §1
Chain of plasma kallikrein (P03952 391-638 limits assumed): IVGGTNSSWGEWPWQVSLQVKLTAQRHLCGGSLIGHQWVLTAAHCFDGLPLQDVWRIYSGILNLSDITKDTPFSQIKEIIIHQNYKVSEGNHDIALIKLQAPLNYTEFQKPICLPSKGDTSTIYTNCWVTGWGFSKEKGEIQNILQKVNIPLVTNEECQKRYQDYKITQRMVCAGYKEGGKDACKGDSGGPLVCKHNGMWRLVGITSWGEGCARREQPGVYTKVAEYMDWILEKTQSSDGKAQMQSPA
Chain of plasma kallikrein (P03952 20-390 partner limits assumed): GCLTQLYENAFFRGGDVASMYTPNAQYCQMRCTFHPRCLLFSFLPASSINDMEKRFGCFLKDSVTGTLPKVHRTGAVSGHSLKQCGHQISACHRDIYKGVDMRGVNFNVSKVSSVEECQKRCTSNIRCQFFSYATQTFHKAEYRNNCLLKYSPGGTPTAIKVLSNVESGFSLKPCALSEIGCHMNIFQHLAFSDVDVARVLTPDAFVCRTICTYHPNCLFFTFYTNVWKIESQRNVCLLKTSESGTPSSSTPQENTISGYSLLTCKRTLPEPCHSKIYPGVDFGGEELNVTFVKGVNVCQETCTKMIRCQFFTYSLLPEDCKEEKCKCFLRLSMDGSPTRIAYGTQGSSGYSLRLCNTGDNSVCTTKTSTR
The test system of experiment [1] is t-PA-induced lysis of whole blood clots. Nature of the experiment: Whole blood fibrinolysis assay (ROTEM, EXTEM with t-PA). The settings on record: human whole blood, t-PA 100 U/mL, Ly60; read-out: concentration resulting in 50% suppression of clot lysis (IC50, median [25%; 75% percentile]). The class given is cell-based, human. As for the experimental part: (§2) Venous blood was withdrawn from the antecubital vein from healthy volunteers after written informed consent in accordance with local and federal guidelines with approval of the local review board (Ethikkommission, Klinikum Charité, Sauerbruchweg 5, 10117 Berlin). The blood was mixed with 0.11 mol/L sodium citrate (1:10). For ROTEM® analysis, whole citrated blood was used within 8 h after collection. Platelet-rich plasma (PRP) was prepared from citrated blood by centrifugation at 330×g for 10 min at room temperature, platelet-poor plasma (PPP) was collected following centrifugation at 1220×g for 12 min. The PRP was then adjusted to 3×10^8 platelets per mL using the autologous PPP. PRP was maintained at room temperature for less than 4 h before analysis. The remaining PPP was subjected to a high-speed centrifugation at 40,000×g for 30 min at 4° C. to remove any particulate material and was then stored at −70° C. until use.
(§3) The antifibrinolytic activity of Compound No. 3 in comparison to aprotinin and tranexamic acid was investigated in plasma and whole blood assays. In both assays, tissue factor was added to initiate rapid clot formation via the extrinsic pathway which produces a clot that remains stable for several hours under normal conditions. Supplementation of plasma or whole blood with tissue-type plasminogen activator (t-PA) before stimulation results in activation of endogenous plasminogen and thus fibrinolysis while the initial clot formation is not impaired. […] A final concentration of 50 U/mL and 100 U/mL in plasma and whole blood, respectively, was chosen to achieve complete lysis within about 60 min. In the presence of antifibrinolytics, clot lysis is delayed in a concentration-dependent manner.
Fibrinolysis in whole blood was studied with rotational thromboelastometry (Luddington, Clin. Lab. Haematol. 27: 81-90, 2005) using a computerized, multi-channel ROTEM® instrument (Pentapharm, Munich, Germany) (Ganter et al., Anesth. Analg. 106: 1366-75, 2008). Activation of test samples accelerated the measurement process and enhanced reproducibility compared with conventional thromboelastography. To allow observation of fibrinolysis, ROTEM® analysis with tissue factor activation (EXTEM) was modified through addition of t-PA (Nielsen et al. Blood Coagul. Fibrinolysis 17: 75-81, 2006). Citrated blood was pre-incubated at 37° C. for 5 min with test compound or saline before tissue factor, CaCl2 and t-PA (100 U/mL final concentration) were added to start the reaction. Fibrinolysis was determined by measuring loss of clot strength with time and was recorded as Ly60 (percentage reduction of the maximum amplitude at 60 min after the onset of clotting). In control samples without inhibitor, clots were lysed completely within 60 min, such that Ly60 was above 90%. By plotting Ly60 versus test compound concentration, IC50 values for each compound were calculated.

In experiment [2] the test system is t-PA-induced fibrinolysis in plasma. Nature of the experiment: Plasma fibrinolysis assay (turbidometric). The class given is biochemical. The settings on record: human plasma, t-PA 50 U/mL; read-out: IC50 on t-PA-induced fibrinolysis in plasma (median [25%; 75% percentile]). As for the experimental part: as §2, §3
Inhibition of fibrinolysis in plasma was examined using a turbidometric method in 96-well flat-bottom plates. The time course of clot formation and lysis, reflected by an initial increase and subsequent decrease in turbidity, was recorded by continuously measuring the optical density (OD) at 405 nm. Similar models have been used widely to study the clot lysis process in human plasma (Kim et al., J. Thromb. Haemost. 5: 1250-6, 2007) as well as its inhibition by antifibrinolytic drugs (Sperzel et al., J. Thromb. Haemost. 5: 2113-8, 2007). Frozen and thawed human plasma (PPP) was pre-incubated with test compound or vehicle (Owren's Veronal buffer) for 5 min at 37° C. […] OD at 405 nm was monitored every 45 s for 180 min at 37° C. with a microplate reader (POLARstar OPTIMA, BMG Labtech, Offenburg, Germany). Fibrinolysis was quantified as the relative decrease in OD at 45 min after the maximum OD was reached. […]

Chain of plasmin (P00747 581-810 limits assumed): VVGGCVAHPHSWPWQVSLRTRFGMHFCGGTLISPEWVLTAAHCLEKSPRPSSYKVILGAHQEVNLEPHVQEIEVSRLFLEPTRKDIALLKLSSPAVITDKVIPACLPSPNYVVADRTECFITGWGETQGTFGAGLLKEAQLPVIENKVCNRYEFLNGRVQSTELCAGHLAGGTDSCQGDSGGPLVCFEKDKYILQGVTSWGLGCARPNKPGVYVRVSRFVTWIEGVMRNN
Chain of plasmin (P00747 97-580 partner limits assumed): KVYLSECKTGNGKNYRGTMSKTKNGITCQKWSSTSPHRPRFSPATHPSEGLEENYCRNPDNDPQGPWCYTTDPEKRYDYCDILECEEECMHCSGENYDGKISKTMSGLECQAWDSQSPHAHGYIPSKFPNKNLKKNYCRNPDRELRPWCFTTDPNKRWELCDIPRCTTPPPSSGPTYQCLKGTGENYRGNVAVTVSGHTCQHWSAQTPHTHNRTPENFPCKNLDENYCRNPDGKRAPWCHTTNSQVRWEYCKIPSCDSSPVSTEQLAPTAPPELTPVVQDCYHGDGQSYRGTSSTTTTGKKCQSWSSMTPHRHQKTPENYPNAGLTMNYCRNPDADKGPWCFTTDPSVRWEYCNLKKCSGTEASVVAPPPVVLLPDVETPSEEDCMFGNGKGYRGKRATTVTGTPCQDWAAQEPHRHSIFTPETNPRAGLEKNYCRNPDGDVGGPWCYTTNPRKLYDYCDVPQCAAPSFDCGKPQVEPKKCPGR

As to `N=C(N)c1ccc(CNC(=O)[C@H](Cc2cccc(CN)c2)NC(=O)[C@@H](CO)NS(=O)(=O)Cc2ccc(C(=O)O)cc2)cc1` [compound 70], the inhibition constant (Ki) at Xa is over 1000 nM; on Thrombin, over 1000 nM; at plasmin, under 100 nM; on plasma kallikrein, under 10 nM.
On to `CC(C)(C)OC[C@@H](NS(=O)(=O)Cc1ccccc1)C(=O)N[C@@H](CCc1cccc(CN)c1)C(=O)NCc1ccc(C(=N)N)cc1` [compound 73], for which the Ki on Xa was under 1000 nM; on Thrombin, under 100 nM; on plasmin, under 100 nM; on plasma kallikrein, under 100 nM.
For `N=C(N)c1ccc(CNC(=O)[C@H](CCc2cccc(CN)c2)NC(=O)[C@@H](CO)NS(=O)(=O)Cc2ccccc2)cc1` [compound 74], the Ki was over 1000 nM on Xa, over 1000 nM on Thrombin, under 100 nM on plasmin and under 100 nM on plasma kallikrein.
Turning to `N=C(N)c1ccc(CNC(=O)[C@H](Cc2ccc(C(=N)N)cc2)NC(=O)[C@@H](CO)NS(=O)(=O)Cc2ccccc2)cc1` [compound 76], the Ki at Xa was over 1000 nM; at Thrombin, over 1000 nM; on plasmin it was under 100 nM; on plasma kallikrein, under 100 nM.
Turning to `CC(C)(C)OC[C@@H](NS(=O)(=O)Cc1ccccc1)C(=O)N[C@@H](CCc1ccc(C(=N)N)cc1)C(=O)NCc1ccc(C(=N)N)cc1` [compound 77], the Ki was under 1000 nM at Xa, under 100 nM on Thrombin, under 10 nM on plasmin and under 10 nM at plasma kallikrein.
For the compound `N=C(N)c1ccc(CC[C@H](NC(=O)[C@@H](CO)NS(=O)(=O)Cc2ccccc2)C(=O)NCc2ccc(C(=N)N)cc2)cc1` [compound 78], the inhibition constant Ki was over 1000 nM at Xa, over 1000 nM on Thrombin, under 100 nM at plasmin and under 10 nM on plasma kallikrein.
As for `NC[C@H]1CC[C@H](C(=O)O)CC1` [tranexamic acid, trans-4-(aminomethyl)cyclo-hexanecarboxylic acid], the IC50 was found to be 2750 nM in experiment [1] and 4220 nM in experiment [2].
For the compound “Bzls-d-Gly(3-O-Phpr)-Phe(3-Ame)-4-Amba×2 TFA [compound 6]”, the Ki was under 100 nM at Xa, under 1000 nM on Thrombin, under 10 nM at plasmin and under 10 nM at plasma kallikrein.

Broadly, the Ki is the equilibrium dissociation constant of an inhibitor or competing ligand from its target.
